Measured values as given in ChEMBL document CHEMBL5046316, “Structure-Based Optimization of a Fragment-like TLR8 Binding Screening Hit to an In Vivo Efficacious TLR7/8 Antagonist” (ACS Med Chem Lett, 2022).

Legend:
[1] = MRT in Balb/c mouse at 10 mg/kg, po or 1 mg/kg, iv administered as cassette dose measured upto 24 hrs by LC/MS/MS analysis; type: ADME, organism-based; conditions: in vivo
[2] = Clearance in Balb/c mouse at 10 mg/kg, po or 1mg/kg, iv administered as cassette dose measured upto 24 hrs by LC/MS/MS analysis; type: ADME, organism-based; conditions: in vivo
[3] = target: T1, Toll-like receptor 7 (Mus musculus, UniProt P58681); experiment: Antagonist activity at mouse TLR7 expressed in human whole blood assessed as inhibition of ssRNA stimulated IFNalpha level preincubated for 30 mins followed by stimulation and measured after 20 hrs by AlphaLISA method; type: tissue-based
T1 sequence (P58681 whole entry): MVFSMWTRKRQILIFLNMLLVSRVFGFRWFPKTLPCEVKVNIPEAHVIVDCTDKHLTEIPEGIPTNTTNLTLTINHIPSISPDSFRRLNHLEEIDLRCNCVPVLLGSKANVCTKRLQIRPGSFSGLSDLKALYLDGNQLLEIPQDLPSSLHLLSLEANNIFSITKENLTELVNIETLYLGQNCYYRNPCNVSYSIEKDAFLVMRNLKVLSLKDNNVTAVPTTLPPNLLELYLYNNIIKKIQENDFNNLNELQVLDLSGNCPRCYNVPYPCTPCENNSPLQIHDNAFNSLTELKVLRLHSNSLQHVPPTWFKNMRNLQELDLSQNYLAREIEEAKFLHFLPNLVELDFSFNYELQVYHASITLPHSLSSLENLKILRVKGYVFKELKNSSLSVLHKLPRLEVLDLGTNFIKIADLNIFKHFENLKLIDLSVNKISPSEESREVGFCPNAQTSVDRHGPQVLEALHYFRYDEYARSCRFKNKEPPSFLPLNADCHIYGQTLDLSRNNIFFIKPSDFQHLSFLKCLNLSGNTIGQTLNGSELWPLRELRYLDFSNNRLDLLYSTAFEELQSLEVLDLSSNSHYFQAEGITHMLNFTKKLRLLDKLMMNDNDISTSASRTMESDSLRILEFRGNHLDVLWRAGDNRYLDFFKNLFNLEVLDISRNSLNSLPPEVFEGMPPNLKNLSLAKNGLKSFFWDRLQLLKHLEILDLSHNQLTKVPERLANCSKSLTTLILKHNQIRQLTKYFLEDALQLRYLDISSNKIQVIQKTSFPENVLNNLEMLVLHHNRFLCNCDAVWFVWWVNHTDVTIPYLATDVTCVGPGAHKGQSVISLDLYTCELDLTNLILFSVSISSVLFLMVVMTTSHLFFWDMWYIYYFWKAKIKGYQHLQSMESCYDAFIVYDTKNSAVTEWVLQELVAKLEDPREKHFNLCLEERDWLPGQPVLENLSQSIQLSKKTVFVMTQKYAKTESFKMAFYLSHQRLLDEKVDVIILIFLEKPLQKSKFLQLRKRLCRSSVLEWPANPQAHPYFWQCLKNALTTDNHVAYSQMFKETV

[4] = target: T1, Toll-like receptor 7; experiment: Antagonist activity at mouse TLR7 expressed in human PBMC cells assessed as inhibition of ssRNA stimulated IFNalpha level preincubated for 30 mins followed by stimulation and measured after 20 hrs by AlphaLISA method; type: cell-based
[5] = target: T2, Toll-like receptor 4 (Homo sapiens, UniProt O00206); experiment: Antagonist activity at human TLR4 expressed in human whole blood assessed as inhibition of LPS stimulated TNF level preincubated for 30 mins followed by stimulation and measured after 20 hrs by multiplate reader assay; type: tissue-based
[6] = target: T3, Toll-like receptor 7 (Homo sapiens, UniProt Q9NYK1); experiment: Antagonist activity at human TLR7 expressed in human PBMC cells assessed as inhibition of ssRNA stimulated IFNalpha level preincubated for 30 mins followed by stimulation and measured after 20 hrs by AlphaLISA method; type: cell-based
T3 sequence (Q9NYK1 whole entry): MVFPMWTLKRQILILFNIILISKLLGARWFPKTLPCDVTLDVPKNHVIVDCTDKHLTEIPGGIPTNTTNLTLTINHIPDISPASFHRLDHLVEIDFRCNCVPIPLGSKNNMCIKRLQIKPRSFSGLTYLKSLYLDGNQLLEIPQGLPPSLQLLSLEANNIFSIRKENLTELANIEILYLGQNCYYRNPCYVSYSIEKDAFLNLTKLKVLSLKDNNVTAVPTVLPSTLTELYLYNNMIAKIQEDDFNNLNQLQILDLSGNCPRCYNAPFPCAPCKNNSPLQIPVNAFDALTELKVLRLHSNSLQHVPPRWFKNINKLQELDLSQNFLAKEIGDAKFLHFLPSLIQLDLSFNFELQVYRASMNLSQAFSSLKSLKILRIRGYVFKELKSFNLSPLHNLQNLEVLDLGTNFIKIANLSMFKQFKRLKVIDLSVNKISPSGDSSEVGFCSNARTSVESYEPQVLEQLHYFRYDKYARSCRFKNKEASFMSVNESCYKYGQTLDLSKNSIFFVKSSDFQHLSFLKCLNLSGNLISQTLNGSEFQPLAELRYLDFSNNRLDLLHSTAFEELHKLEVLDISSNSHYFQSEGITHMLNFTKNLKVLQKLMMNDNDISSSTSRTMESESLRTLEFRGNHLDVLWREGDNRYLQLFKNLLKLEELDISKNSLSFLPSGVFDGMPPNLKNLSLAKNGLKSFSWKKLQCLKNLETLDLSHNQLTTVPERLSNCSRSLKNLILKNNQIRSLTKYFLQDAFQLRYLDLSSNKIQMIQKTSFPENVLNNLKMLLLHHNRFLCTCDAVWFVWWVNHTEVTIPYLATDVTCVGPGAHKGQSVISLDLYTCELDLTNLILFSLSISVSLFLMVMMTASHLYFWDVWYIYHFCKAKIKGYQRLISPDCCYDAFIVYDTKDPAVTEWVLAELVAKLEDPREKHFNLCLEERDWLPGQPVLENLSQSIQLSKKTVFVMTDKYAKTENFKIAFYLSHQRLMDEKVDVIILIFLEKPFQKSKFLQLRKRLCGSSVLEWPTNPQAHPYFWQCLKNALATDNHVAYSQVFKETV

[7] = Oral bioavailability in Balb/c mouse at 10 mg/kg administered as cassette dose measured upto 24 hrs by LC/MS/MS analysis; type: ADME, organism-based; conditions: in vivo
[8] = Drug exposure in 129Sv mouse blood at 0.3 mg/kg, po by LC-MS/MS analysis; type: ADME, organism-based; conditions: in vivo, read-out: Drug uptake
[9] = target: T3, Toll-like receptor 7; experiment: Antagonist activity at human TLR7 expressed in human whole blood assessed as inhibition of ssRNA stimulated IFNalpha level preincubated for 30 mins followed by stimulation and measured after 20 hrs by AlphaLISA method; type: tissue-based
[10] = Drug exposure in 129Sv mouse blood at 1 mg/kg, po by LC-MS/MS analysis; type: ADME, organism-based; conditions: in vivo, read-out: Drug uptake
[11] = target: Cytochrome P450 3A4 (Homo sapiens, UniProt P08684); experiment: Inhibition of CYP3A4 (unknown origin); type: ADME
[12] = target: T2, Toll-like receptor 4; experiment: Antagonist activity at human TLR4 expressed in human PBMC cells assessed as inhibition of LPS stimulated TNF level preincubated for 30 mins followed by stimulation and measured after 20 hrs by multiplate reader assay; type: cell-based
[13] = Octanol/water partition coefficient, logD of compound at pH 7.4 measured after 4 hrs by shake flask method; type: physicochemical

T2 sequence (O00206 whole entry): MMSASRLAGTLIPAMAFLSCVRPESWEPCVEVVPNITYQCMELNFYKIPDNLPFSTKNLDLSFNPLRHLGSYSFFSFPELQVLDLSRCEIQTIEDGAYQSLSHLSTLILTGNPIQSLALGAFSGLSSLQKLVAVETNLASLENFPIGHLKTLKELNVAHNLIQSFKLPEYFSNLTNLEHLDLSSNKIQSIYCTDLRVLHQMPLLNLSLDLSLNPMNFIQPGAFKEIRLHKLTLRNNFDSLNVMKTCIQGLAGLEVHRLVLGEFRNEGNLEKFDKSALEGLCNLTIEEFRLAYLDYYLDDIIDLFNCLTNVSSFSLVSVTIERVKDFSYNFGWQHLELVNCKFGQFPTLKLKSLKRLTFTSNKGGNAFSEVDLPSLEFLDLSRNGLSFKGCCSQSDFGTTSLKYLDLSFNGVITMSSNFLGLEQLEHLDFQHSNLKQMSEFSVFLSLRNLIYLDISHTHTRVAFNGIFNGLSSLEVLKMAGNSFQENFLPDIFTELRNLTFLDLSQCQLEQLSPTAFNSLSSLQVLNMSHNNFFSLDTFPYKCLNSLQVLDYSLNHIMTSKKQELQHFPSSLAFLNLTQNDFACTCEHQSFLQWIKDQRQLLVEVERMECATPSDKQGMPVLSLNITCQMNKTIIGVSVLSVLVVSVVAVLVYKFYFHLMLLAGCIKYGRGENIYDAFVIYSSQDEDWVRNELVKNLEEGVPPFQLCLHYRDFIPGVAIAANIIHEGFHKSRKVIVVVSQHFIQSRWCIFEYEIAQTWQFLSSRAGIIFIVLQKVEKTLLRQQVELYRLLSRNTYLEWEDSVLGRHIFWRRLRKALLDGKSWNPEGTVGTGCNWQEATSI
Sequence of Cytochrome P450 3A4 (P08684 whole entry): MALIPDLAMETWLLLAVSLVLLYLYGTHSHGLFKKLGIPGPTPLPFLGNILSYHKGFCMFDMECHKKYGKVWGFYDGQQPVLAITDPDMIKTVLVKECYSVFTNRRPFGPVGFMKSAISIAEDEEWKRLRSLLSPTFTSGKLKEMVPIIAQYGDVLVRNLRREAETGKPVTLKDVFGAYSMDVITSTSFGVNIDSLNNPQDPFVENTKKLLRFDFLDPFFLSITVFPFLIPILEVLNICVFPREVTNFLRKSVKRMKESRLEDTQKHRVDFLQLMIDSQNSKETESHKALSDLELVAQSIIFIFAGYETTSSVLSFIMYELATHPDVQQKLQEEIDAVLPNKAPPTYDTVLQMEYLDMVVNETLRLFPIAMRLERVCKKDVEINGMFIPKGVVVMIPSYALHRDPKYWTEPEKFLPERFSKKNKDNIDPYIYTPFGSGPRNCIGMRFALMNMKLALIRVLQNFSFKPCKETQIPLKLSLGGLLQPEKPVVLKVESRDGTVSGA

MRT [1]: 2.5 h
clearance [2]: 55 mL/min/kg
IC50 [3]: 2 nM
IC50 [4]: Not Active
IC50 [5]: > 10000 nM
IC50 [6]: 7 nM
bioavailability [7]: 38%
concentration [8]: 1.3 nM
IC50 [9]: 4.9 nM
concentration [10]: 8 nM
IC50 [11]: > 25000 nM
IC50 [12]: > 8000 nM
logD at 4 h [13]: 2.7
Structure (SMILES): Cc1cc(-c2cc3[nH]nc(N[C@@H]4CCNC[C@H]4F)c3cc2C2CC2)cc(C)n1
